From US11382877B2, “Formulation of (E)-2,4,6-trimethoxystyryl-3-[(carboxymethyl)amino]-4-methoxybenzylsulphone with enhanced stability and bioavailability” (ONCONOVA THERAPEUTICS, INC., priority 2017, dated 2022)
Structures can show the parent of a compound that is named as a salt.

Legend:
[1] = Phase 2 study in lower risk transfusion-dependent MDS patients, continuous vs intermittent oral administration, urinary adverse events; format: in vivo
Protocol: Soft gelatin capsule of Rigosertib was tested in this phase 2 study in LR (Lower Risk intermediate-1 or low risk per IPSS classification) transfusion-dependent MDS patients. The capsules (560 mg) were administered twice a day, under fasting conditions, approximately 12 hours apart. The total dose of drug was 1120 mg per day. Various treatment regimens were tested: • Continuous administration, i.e 4 out of 4 weeks. 9 patients were treated. • Intermittent administration; i.e 2 weeks on and one week off. 35 patients were treated. Safety assessment: medical history, physical examination, vital signs (blood pressure, temperature, respiration rate, and pulse), weight, standard 12-lead ECG, laboratory evaluations, and toxicity and AE assessments were monitored throughout the study. Urinary Adverse Events are pollakiuria, micturition urgency, urinary tract pain, hematuria and dysuria.

[2] = Phase II, Part 2 study of shorter spacing between two oral doses with azacitidine, urinary adverse events; format: in vivo, patients; settings: doses administered about 8 hours apart
Protocol: This study was conducted in patients with high risk MDS. RAEB-t (Refractory Anemia with Excess Blasts in Transformation)/non-proliferative AML were eligible but patients with CMML (Chronic Myelomonocytic Leukemia) were excluded.
The Phase II, Part 2 component of the study consisted of 2 cohorts of up to 40 evaluable patients randomized 1:1 into 2 cohorts of up to 20 patients each to receive 1120 mg of rigosertib over 24 hours: either 560 mg in the morning before breakfast in the fasting state and 560 mg in the afternoon, or 840 mg in the morning before breakfast in the fasting state and 280 mg in the afternoon. The afternoon dose in both cohorts must be administered at 3 PM (±1 hr) at least 2 hours after lunch. Each cohort will be stratified among HMA (hypomethylating agents) naïve and HMA refractory patients.
Each patient was required to complete a diary indicating the day and time of drug intake and record daily urinary dipstick pH and microscopic hematuria test. Rigosertib was supplied as 280 mg and 70 mg (in the event that different doses are needed) capsules by Onconova. […]
Safety assessment: medical history, physical examination, vital signs (blood pressure, temperature, respiration rate, and pulse), weight, standard 12-lead ECG, laboratory evaluations, and toxicity and AE assessments were monitored throughout the study. […]

[3] = tested on: immature bone marrow cells (blasts); assay: Intravenous infusion trials in MDS patients; format: in vivo
Protocol: According to one embodiment, Rigosertib was given as an intravenous infusion to MDS patients. In one trial, patients received 800 mg Rigosertib for two to five days every other week. According to another embodiment, patients received 650 to 1,700 mg Rigosertib for three to six days every other week. According to yet another embodiment, patients were initially treated with 800 mg to 1,500 mg Rigosertib for two days every week for three weeks followed by one week without treatment. The treatment schedule in these studies was later changed to 1,800 mg Rigosertib per day for three days every other week.

[4] = tested on: immature bone marrow cells; assay: Higher risk MDS patients who previously failed Vidaza or Dacogen; format: in vivo; settings: higher risk MDS patients after failure of azacitidine or decitabine
Source text: In another embodiment, the efficacy of Rigosertib was shown in higher risk MDS patients who had previously failed treatment with Vidaza (azacitidine) or Dacogen (decitabine). […] These patients experienced at least a 50 percent decrease or stabilization in the number of immature bone marrow cells, and their median survival was about 36 weeks.

[5] = administered orally; cited from earlier work
[6] = 560 mg bid q12 hrs, intermittent 2 weeks on/1 week off, n = 35

Compound: COc1cc(OC)c(/C=C/S(=O)(=O)Cc2ccc(OC)c(NCC(=O)O)c2)c(OC)c1 [Rigosertib, (E)-2,4,6-trimethoxystyryl-3-[(carboxymethyl)amino]-4-methoxybenzylsulphone sodium salt]
- Incidence of Urinary AEs, Grade 1/2 (% of Patients) [1, 6]: 71%
- Incidence of Urinary AEs, Grade 1/2, number of patients [1, 6]: 25
- Incidence of Urinary AEs, Grade 3 (% of Patients) [1, 6]: 23%
- Incidence of Urinary AEs, Grade 3, number of patients [1, 6]: 8
- Urinary adverse events (in words) ([1]; continuous administration 4 out of 4 weeks, 560 mg twice a day): high urinary adverse events
- Tolerability compared to continuous administration ([1]; intermittent administration 2 weeks on and one week off, 560 mg twice a day): better tolerated
- Incidence of urinary adverse events (in words) [2]: dramatic reduction
- Decrease or stabilization in the number of immature bone marrow cells (blasts) [3]: ≥ 50%
- Decrease or stabilization in the number of immature bone marrow cells [4]: ≥ 50%
- Median survival [4]: about 36 weeks
- Common adverse event [5]: urothelial toxicity
